Source: patent US11155546B2, “4,6,7-trisubstituted 1,2-dihydropyrrolo[3,4-c]pyridin/pyrimidin-3-one derivatives and uses thereof” (SHANGHAI HAIYAN PHARMACEUTICAL TECHNOLOGY CO., LTD., priority 2017, dated 2021)

Key:
in vivo = assay: in vivo
Experimental: Test Animals: ICR mice, weight 28-30 g, male, totally 12, purchased from SLAC Laboratory Animal Co., Ltd. Mice were fasting one night before administration and freely fed 4 hours after administration.
Administration and Blood collection: 6 mice were administered intragastrically (PO) in a administered dosage of 30 mg/kg and a administered volume of 10 mL/kg. One administration route was subjected with 6 mice, blood samples of three mice were collected at one time point, and blood samples of another three mice were collected at alternate time point alternately. Blood was collected at 8 time points of 0.083, 0.25, 0.5, 1, 2, 4, 8, 24 h after administration respectively.
Animals were manually controlled at the time of collection and approximately 80 μL of blood was collected from the mice fundus venous plexus into a tube containing K2EDTA. The collected blood sample was put on wet ice, centrifuged within 15 min (8000 rpm, 4 min at 4° C.), and then the plasma sample was taken and stored at minus 20° C. till analysis. The compounds were prepared on the day of the experiment.
Solvent excipient information: DMSO (brand: Sigma, batch number: SHBD2446V); 2-hydroxypropyl-3-cyclodextrin (brand: Sigma, batch number: BCBN8227V), acetic acid (brand: Sinopharm Group, batch number: 20150616), sodium acetate (Brand: GENERAL-REAGENT, batch number: P1246037).
Preparation of a 3 mg/mL PO dosing solution: the solvent was a solution of 5% DMSO and 95% PH4.5 (sodium acetate-acetate) in 20% of 2-hydroxypropyl-β-cyclodextrin.
Analytical method: Plasma samples were analyzed by liquid chromatography-tandem mass spectrometry (Instrument type: Triple Quad™ 4000).
Preparation of the standard curve: preparing a standard curve of the test compound 1n the plasma matrix of ICR mice with a linear range of 1.00-3000 ng/mL, and preparing control samples at low, medium and high concentrations of 3 ng/mL, 500 ng/mL, and 2400 ng/mL respectively.
Treatment of biological samples: the frozen plasma samples were thawed on ice, and after the samples were thawed, they were vortexed on a vortex for 5 min. 20 μL of plasma sample was added to a 96-well plate, and 200 μL of acetonitrile (brand: Merck, Lot: 1854029643) containing an internal standard dexamethasone (Brand: NIFDC, Lot: 1N2V-DPGY, 2000 ng/mL) was added to precipitate protein, which were vortexed for 5 min, and then centrifuged at 3700 rpm and 4° C. for 15 min. The supernatant was extracted and twice centrifuged under the same conditions, and finally 2 μL of the supernatant solution was analyzed by LC-MS/MS.

wild-type EGFR kinase = wild-type EGFR kinase (Homo sapiens (Human), UniProt P00533); assay: Wild type EGFR kinase inhibition test (z-lyte); assay type: biochemical; conditions: 10 μM ATP; read-out: EGFR WT IC50
wild-type EGFR kinase, sequence (P00533 25-1210): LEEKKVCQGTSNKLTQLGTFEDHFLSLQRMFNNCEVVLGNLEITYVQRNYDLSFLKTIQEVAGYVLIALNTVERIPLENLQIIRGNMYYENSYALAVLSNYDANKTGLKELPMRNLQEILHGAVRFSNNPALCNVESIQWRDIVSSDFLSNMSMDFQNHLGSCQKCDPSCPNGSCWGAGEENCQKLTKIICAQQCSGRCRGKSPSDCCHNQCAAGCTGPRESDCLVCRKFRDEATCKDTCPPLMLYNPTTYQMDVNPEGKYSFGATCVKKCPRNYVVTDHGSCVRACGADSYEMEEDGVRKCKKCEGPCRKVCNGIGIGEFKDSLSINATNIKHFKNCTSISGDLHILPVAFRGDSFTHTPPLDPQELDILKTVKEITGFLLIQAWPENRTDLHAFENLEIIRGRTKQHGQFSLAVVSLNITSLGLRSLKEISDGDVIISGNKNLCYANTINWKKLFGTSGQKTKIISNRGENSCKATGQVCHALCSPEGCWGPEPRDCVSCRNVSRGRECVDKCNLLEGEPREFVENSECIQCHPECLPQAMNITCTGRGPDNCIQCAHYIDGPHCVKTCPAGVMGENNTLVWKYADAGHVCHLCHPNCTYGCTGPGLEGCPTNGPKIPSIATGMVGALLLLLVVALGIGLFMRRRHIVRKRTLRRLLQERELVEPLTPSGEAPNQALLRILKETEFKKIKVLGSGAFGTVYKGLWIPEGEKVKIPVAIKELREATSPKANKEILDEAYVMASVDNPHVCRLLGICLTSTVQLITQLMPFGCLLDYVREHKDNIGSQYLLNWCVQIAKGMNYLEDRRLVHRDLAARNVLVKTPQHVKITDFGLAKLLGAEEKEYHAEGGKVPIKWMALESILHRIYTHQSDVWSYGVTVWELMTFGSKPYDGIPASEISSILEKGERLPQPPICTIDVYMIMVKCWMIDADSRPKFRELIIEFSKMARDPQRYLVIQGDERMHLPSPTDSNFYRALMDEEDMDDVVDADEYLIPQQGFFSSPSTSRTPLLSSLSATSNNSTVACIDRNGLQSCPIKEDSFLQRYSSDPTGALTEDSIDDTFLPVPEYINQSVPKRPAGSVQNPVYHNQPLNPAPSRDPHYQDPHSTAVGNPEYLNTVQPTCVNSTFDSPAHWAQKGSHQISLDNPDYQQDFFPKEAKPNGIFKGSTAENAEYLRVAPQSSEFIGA
From the text: All the following reagents used in z-lyte test are commercially available from Invitrogen.
The calculation method for the inhibition ratio (referring to the specification of Invitrogen, PV3363) was as follows: ER=Coumarin Emission(450 nm)/Fluorescein Emission(520 nm) 1. Phosphorylation ratio=(1−((ER×C3520nm−C3450nm)/((C1450nm−C3450nm)+ER×(C3520nm−C1520nm))))×100% 2. Inhibition ratio (IR)=(1−phosphorylation ratio of the test compound)/(phosphorylation ratio of C2))×100% 3.
The half-inhibitory concentration IC50 was calculated by fitting with XLFIT 5.0 software (IDBS, UK).

βBTK Y223 = βBTK Y223 (Homo sapiens (Human), UniProt Q06187); assay: Intracellular βBTK Y223 phosphorylation HTRF in Ramos cells; assay type: cell-based
βBTK Y223, sequence (Q06187 whole entry): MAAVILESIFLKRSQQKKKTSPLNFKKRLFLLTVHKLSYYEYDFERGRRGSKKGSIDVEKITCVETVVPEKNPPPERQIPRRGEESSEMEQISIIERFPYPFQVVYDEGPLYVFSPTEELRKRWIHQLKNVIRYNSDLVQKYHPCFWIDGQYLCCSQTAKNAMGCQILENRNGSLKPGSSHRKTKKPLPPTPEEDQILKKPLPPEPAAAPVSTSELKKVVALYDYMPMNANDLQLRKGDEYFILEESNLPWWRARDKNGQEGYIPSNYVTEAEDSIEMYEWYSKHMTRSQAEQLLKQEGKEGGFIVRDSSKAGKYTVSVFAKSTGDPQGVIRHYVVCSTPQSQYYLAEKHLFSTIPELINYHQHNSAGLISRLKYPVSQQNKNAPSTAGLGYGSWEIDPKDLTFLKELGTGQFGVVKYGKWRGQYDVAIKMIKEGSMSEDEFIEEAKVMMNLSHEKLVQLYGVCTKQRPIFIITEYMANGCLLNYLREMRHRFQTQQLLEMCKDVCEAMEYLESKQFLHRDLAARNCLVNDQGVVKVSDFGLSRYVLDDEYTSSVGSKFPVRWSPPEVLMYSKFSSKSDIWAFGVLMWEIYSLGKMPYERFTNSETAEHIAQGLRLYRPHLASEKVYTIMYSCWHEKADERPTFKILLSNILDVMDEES
Experimental: The compound was predissolved in 100% DMSO. […] 20 μl of lysate (4× lysate: blocked mother liquor is 25:1) was added to each well and incubated for 30 minutes at 25° C. on a shaker. It was shaken on an oscillator at 800 rpm for 1 minute. […] The half-inhibitory concentration IC50 was calculated by fitting with XLFIT 5.0 software (IDBS, UK).

BTK WT = BTK WT (Homo sapiens (Human), UniProt Q06187); assay: Lantha screening kinase reaction, inhibition of BTK WT; assay type: biochemical
BTK WT, sequence (Q06187 whole entry): as above
Experimental: The compound was predissolved in 100% DMSO. 10 mM drug stock solution was obtained by dissolution at room temperature and then serially diluted with 8 vol % DMSO solution to a final concentration of 10-0.005 μM. […] Among the wells, the kinase in the blank well was replaced with a reaction buffer and the kinase well (Enzyme) was not added with any drug. After shaking at 25° C. for 60 minutes in the dark, 10 μl of Detection Solution (mixture of Invitrogen PV3528 and EDTA, which was diluted with TR-FRET dilution buffer, the working concentration of EDTA was 5 mM, the working concentration of Lanthascreening Tb PY20 antibody was 0.2 nM) was added and shaken at room temperature for 30 minutes. The plates were read on a VictorX5 fluorescent plate reader (PerkinElmer) and the light absorption at an excitation wavelength of 340 nm and emission wavelengths of 500 nm and 520 nm was measured.
The calculation method for the inhibition ratio (referring to the specification of Invitrogen, PV3363) was as follows: Emission ratio (ER):Coumarin Emission (520 nm)/Fluorescein Emission (500 nm) 1. The inhibition ratio (IR):(ERkinase−ERtest compound)/(ERkinase−ERblank)×100%. 2.
The half-inhibitory concentration IC50 was calculated by fitting with XLFIT5.0 software (IDBS, UK).

[1] = male, ICR, mouse, in vivo, po, 30 mg/kg

SMILES	AUC (in vivo; [1]) [ng·h/mL]	Cmax (in vivo; [1]) [ng/mL]	Tmax (in vivo; [1]) [min]	bioavailability (in vivo; [1]) [%]	half-life (in vivo; [1]) [min]	IC50 (wild-type EGFR kinase) [nM]	IC50 (βBTK Y223) [nM]	IC50 (BTK WT) [nM]	efficacy of the compound in mice compared with the compound without substituent on the nitrogen atom attached to the piperidine ring (in vivo; mouse, in vivo, po, 30 mg/kg)	Area under curve AUC (in vivo; mouse, in vivo, po, 30 mg/kg) [ng·h/mL]	Maximum blood concentration Cmax (in vivo; mouse, in vivo, po, 30 mg/kg) [ng/mL]	Oral relative bioavailability F (%) (in vivo; mouse, in vivo, po, 30 mg/kg)	Tmax (in vivo; mouse, in vivo, po, 30 mg/kg) [min]	half-time T1/2 (in vivo; mouse, in vivo, po, 30 mg/kg) [min]	efficacy of the compound in mice compared with the compound without substituent on the nitrogen atom attached to the piperidine ring (in vivo; ICR mice, PO 30 mg/kg, pairs G-7/G-60, G-14/G-71, G-23/G-72)
C=CC(=O)N1CC(Nc2nc(-c3cnn(C)c3)c3c(c2F)CNC3=O)CCC1C (stereo not drawn) [Compound G-26, 6-(1-acryloyl-6-methylpiperidin-3-ylamino)-7-fluoro-4-(1-methyl-1H-pyrazole-4-yl)-1H-pyrrolo[3,4-c]pyridine-3(2H)-one]	1290	2400	4.8	13.1	127	6690	47	27							
C=CC(=O)N1CCCC(N(C)c2nc(Nc3cc(C)ns3)c3c(c2F)CNC3=O)C1 (stereo not drawn) [Compound G-72, 6-((1-acryloylpiperidin-3-yl)(methyl)amino)-7-fluoro-4-(3-methylisothiazole-5-ylamino)-1H-pyrrolo[3,4-c]pyridine-3(2H)-one]	107	10.7	15		679	1660	4	5	significantly lower						
C=CC(=O)N1CCCC(N(C)c2nc(Nc3ccc(N4CCOCC4)cc3)c3c(c2F)CNC3=O)C1 (stereo not drawn) [Compound G-71, 6-((1-acryloylpiperidin-3-yl)(methyl)amino)-7-fluoro-4-(4-morpholin)-1H-pyrrolo[3,4-c]pyridine-3 (2H)-one]	606	533	4.8	7.4	679	1590	3	5	significantly lower						
C=CC(=O)N1CCCC(Nc2nc(Nc3ccc(N4CCOCC4)c(Cl)c3)c3c(c2F)CNC3=O)C1 (stereo not drawn) [Compound G-39]						6310	3	2		1182	1501.0	15.2	4.8	138	
C=CC(=O)N1CC2CN(c3nc(Nc4cnn(C)c4)c4c(c3F)CNC4=O)CC2C1 (stereo not drawn) [Compound G-76]						1360	2	0.8							
C=CC(=O)N1CCCC(Nc2nc(Nc3ccc(N4CCOCC4)cc3)c3c(c2F)CNC3=O)C1 (stereo not drawn) [Compound G-14]						4130	3	3		1072	1240.0	13.7	4.8	148	
C=CC(=O)N1CCCC(Nc2nc(Nc3ccc(N4CCN(C)CC4)cn3)c3c(c2F)CNC3=O)C1 (stereo not drawn) [Compound G-12]						3850	80	21							
C=CC(=O)N1CCCC(Nc2nc(Nc3cnn(C4CCS(=O)(=O)CC4)c3)c3c(c2F)CNC3=O)C1 (stereo not drawn) [Compound G-13]						1600	45	3							
C=CC(=O)N1CCCC(Nc2nc(Nc3ccc(N4CCN(C)CC4)cc3)c3c(c2F)CNC3=O)C1 (stereo not drawn) [Compound G-11]						4250	2	1							
C=CC(=O)N1CCCC(Nc2nc(Nc3ccc(N4CCOCC4)cc3F)c3c(c2F)CNC3=O)C1 (stereo not drawn) [Compound G-31]						7930	11	7		1839	1237.0	28.2	15	103	
C=CC(=O)N1CCCC(Nc2nc(-c3cnn(C)c3)c3c(c2F)CNC3=O)C1C (stereo not drawn) [Compound G-51]						6820	80	62							
C=CC(=O)N1CCCC(Nc2nc(-c3cnn(C)c3)c3c(c2F)CNC3=O)C1 (stereo not drawn) [Compound G-7, 6-(1-acryloylpiperidin-3-ylamino)-7-fluoro-4-(1-methyl-1H-pyrazole-4-yl)-1H-pyrrolo[3,4-c]pyridine-3(2H)-one]	1330	1830	4.8	25.4	93	3950	11	35							
C=CC(=O)N1CCCC(N(C)c2nc(-c3cnn(C)c3)c3c(c2F)CNC3=O)C1 (stereo not drawn) [Compound G-60, 6-((1-acryloylpiperidin-3-yl)(methyl)amino)-7-fluoro-4-(1-methyl-1H-pyrazole-4-yl)-1H-pyrrolo[3.4-c]pyridine-3 (2H)-one]						> 10000	24	9		109	351.7	3	4.8	634.2	significantly lower
C=CC(=O)N1CCCC(Nc2nc(Nc3ccc(OCCOC)cc3)c3c(c2F)CNC3=O)C1 (stereo not drawn) [Compound G-2, 6-(1-acryloylpiperidin-3-ylamino)-7-fluoro-4-(4-(2-methoxyethoxy)phenylamino)-1H-pyrrolo[3,4-c]pyridine-3 (2H)-one]						1620	5	3							
C=CC(=O)N1CCCC(Nc2nc3c(c(Nc4cnn(C)c4)n2)C(=O)NC3)C1 (stereo not drawn) [Compound G-59, 2-(1-acryloylpiperidin-3-ylamino)-4-(1-methyl-1H-pyrazole-4-ylamino)-6,7-dihydrogen-5H-pyrrolo[3,4-d]pyrimidine-5-one]						1020	16	13							
